Where no end group is shown, it is not given here.
Columns and labels:
[1] = cumulative food intake, lean mice (Model A), BioDaQ system; type: in vivo; conditions: lean male C57BL/6 mice, 1 mg/kg s.c., relative to vehicle, negative = reduction
Procedure: Cumulative food intake after 6 h was determined for the PYY analogs in either lean (Model A) or diet-induced obese (DIO) (Model B) C57BL/6 mice in a BioDaQ system for continuous monitoring of food intake (Research Diets Inc., New Brunswick, N.J.). […] Mice were placed singly into the BioDaQ cages and acclimatized for a minimum of 6 days and were allowed ad libitum access to food and water. Approximately 1 hour prior to lights-out, animals were dosed subcutaneously with either vehicle (20 mM Acetate buffer, pH 4.9 or 20% DMSO in water) or analogs dissolved in vehicle (1 mg/kg) (8 animals per group). Once all animals have been dosed, feeder gates were opened providing ad-libitum access to food. Continuous food intake was monitored and collected for 15 hours. […] P-values <0.05 were considered to indicate a significant difference between treatment groups.

[2] = chronic (41 days) efficacy study in DIO Long Evans rats: body weight, body composition, food intake; type: in vivo, Long Evans rat; conditions: DIO LE rats
Procedure: Rats were 17 weeks old at the start of the study. The rats were housed 1 per cage and given ad libitum access to TD.95217 chow and water, maintained on a 12 h light/dark cycle from 5:00 AM to 5:00 PM at 21° C. and 50% relative humidity and allowed to acclimate for at least 7 days prior to baseline measurements. Baseline fat mass and non-fat mass measurements were taken 3 days before the start of peptide infusion and on day 40 of treatment using a QMR instrument (Echo Medical Systems, Houston, Tex.). […] Each rat was implanted with two osmotic pumps subcutaneously in the scapula region containing vehicle or peptide according to their treatment group. Body weight and food intake were measured twice per week beginning three days before the 41-day treatment period. On day 41 of treatment, whole blood was collected by cardiac stick under isoflurane anesthesia. Plasma and serum were then prepared from the whole blood for serum chemistry analysis. All the data are presented as mean±SEM. The data were analyzed in either Prism (GraphPad Software, Inc., La Jolla, Calif.) or Excel using a Student's T-test to compare each group to the appropriate control group. P-values <0.05 were considered to indicate a significant difference between treatment groups.

[3] = chronic (26 days) efficacy study in diabetic ZDF rats: glucose and HbA1c; type: in vivo, Zucker Diabetic Fatty (ZDF) rat
Excerpt: Male ZDF rats were 12 weeks old at the start of the study (Charles River, Inc., Boston, Mass.). […] Baseline fat mass and non-fat mass measurements were taken 3 days before the start of peptide infusion and on day 26 of treatment using a QMR instrument (Echo Medical Systems, Houston, Tex.). […] P-values <0.05 were considered to indicate a significant difference between treatment groups.

[4] = Table 1, cumulative food intake after 6 h
[5] = s.c. infusion, used as study dose

Compound	% reduction in food intake, model A [1, 4]	% reduction in food intake, model A ([1]; Table 2, 6 h time point)	other results
CC(C)C[C@H](NC(=O)[C@H](CO)NC(=O)[C@H](C)NC(=O)[C@H](Cc1ccc(O)cc1)NC(=O)[C@H](Cc1ccc(O)cc1)NC(=O)[C@H](CCCNC(=N)N)NC(=O)[C@H](CC(N)=O)NC(=O)[C@H](CC(C)C)NC(=O)[C@H](CCC(=O)O)NC(=O)[C@H](CCC(=O)O)NC(=O)[C@@H]1CCCN1C(=O)[C@H](CO)NC(=O)[C@H](C)NC(=O)[C@H](CC(=O)O)NC(=O)[C@H](CCCCN)NC(=O)CNC(=O)[C@@H]1CCCN1C(=O)[C@H](C)NC(=O)[C@H](CCC(=O)O)NC(=O)[C@@H]1CCCN1C(=O)[C@H](CCCCN)NC(=O)[C@@H]1CCCN1)C(=O)N[C@@H](CCCNC(=N)N)C(=O)N[C@@H](CCCCN)C(=O)N[C@@H](Cc1ccc(O)cc1)C(=O)N[C@@H](CC(C)C)C(=O)N[C@@H](CC(N)=O)C(=O)N[C@@H](Cc1c[nH]c2ccccc12)C(=O)N[C@@H](CC(C)C)C(=O)N[C@H](C(=O)N[C@@H](CCCNC(=N)N)C(=O)N[C@@H](CCC(N)=O)C(=O)N[C@@H](CCCNC(=N)N)C(=O)N[C@@H](Cc1ccc(O)cc1)C(N)=O)[C@@H](C)O [Example 2]	−50%		
CC(C)C[C@H](NC(=O)[C@H](CO)NC(=O)[C@H](C)NC(=O)[C@H](Cc1ccc(O)cc1)NC(=O)[C@H](Cc1ccc(O)cc1)NC(=O)[C@H](CCCNC(=N)N)NC(=O)[C@H](CC(N)=O)NC(=O)[C@H](Cc1c[nH]c2ccccc12)NC(=O)[C@H](CCC(=O)O)NC(=O)[C@H](CCC(=O)O)NC(=O)[C@@H]1CCCN1C(=O)[C@H](CO)NC(=O)[C@H](C)NC(=O)[C@H](CC(=O)O)NC(=O)[C@H](CCCCN)NC(=O)CNC(=O)[C@@H]1CCCN1C(=O)[C@H](C)NC(=O)[C@H](CCC(=O)O)NC(=O)[C@@H]1CCCN1C(=O)[C@H](CCCCN)NC(=O)[C@@H]1CCCN1)C(=O)N[C@@H](CCCNC(=N)N)C(=O)N[C@@H](CCCCN)C(=O)N[C@@H](Cc1ccc(O)cc1)C(=O)N[C@@H](CC(C)C)C(=O)N[C@@H](CC(N)=O)C(=O)N[C@@H](Cc1c[nH]c2ccccc12)C(=O)N[C@@H](CC(C)C)C(=O)N[C@H](C(=O)N[C@@H](CCCNC(=N)N)C(=O)N[C@@H](CCC(N)=O)C(=O)N[C@@H](CCCNC(=N)N)C(=O)N[C@@H](Cc1ccc(O)cc1)C(N)=O)[C@@H](C)O [Example 6]	−88%		
CC(C)C[C@H](NC(=O)[C@H](CC(=O)O)NC(=O)[C@H](C)NC(=O)[C@H](Cc1ccc(O)cc1)NC(=O)[C@H](Cc1ccc(O)cc1)NC(=O)[C@H](CCCNC(=N)N)NC(=O)[C@H](CC(N)=O)NC(=O)[C@H](Cc1c[nH]c2ccccc12)NC(=O)[C@H](CCC(=O)O)NC(=O)[C@H](CCC(=O)O)NC(=O)[C@@H]1CCCN1C(=O)[C@H](CO)NC(=O)[C@H](C)NC(=O)[C@H](CC(=O)O)NC(=O)[C@H](CCCCN)NC(=O)CNC(=O)[C@@H]1CCCN1C(=O)[C@H](C)NC(=O)[C@H](CCC(=O)O)NC(=O)[C@@H]1CCCN1C(=O)[C@H](CCCCN)NC(=O)[C@@H]1CCCN1)C(=O)N[C@@H](CCCNC(=N)N)C(=O)N[C@@H](CCCCN)C(=O)N[C@@H](Cc1ccc(O)cc1)C(=O)N[C@@H](CC(C)C)C(=O)N[C@@H](CC(N)=O)C(=O)N[C@@H](Cc1c[nH]c2ccccc12)C(=O)N[C@H](C(=O)N[C@H](C(=O)N[C@@H](CCCNC(=N)N)C(=O)N[C@@H](CCC(N)=O)C(=O)N[C@@H](CCCNC(=N)N)C(=O)N[C@@H](Cc1ccc(O)cc1)C(N)=O)[C@@H](C)O)C(C)C [Example 8]	−74%		
CC(C)C[C@H](NC(=O)[C@H](CO)NC(=O)[C@H](C)NC(=O)[C@H](Cc1ccc(O)cc1)NC(=O)[C@H](Cc1ccc(O)cc1)NC(=O)[C@H](CCCNC(=N)N)NC(=O)[C@H](CC(N)=O)NC(=O)[C@H](Cc1c[nH]c2ccccc12)NC(=O)[C@H](CCC(=O)O)NC(=O)[C@H](CCC(=O)O)NC(=O)[C@@H]1CCCN1C(=O)[C@H](CO)NC(=O)[C@H](C)NC(=O)[C@H](CC(=O)O)NC(=O)[C@H](CCCCN)NC(=O)CNC(=O)[C@@H]1CCCN1C(=O)[C@H](C)NC(=O)[C@H](CCC(=O)O)NC(=O)[C@@H]1CCCN1C(=O)[C@H](CCCCN)NC(=O)[C@@H]1CCCN1)C(=O)N[C@@H](CCCNC(=N)N)C(=O)N[C@@H](CCCCN)C(=O)N[C@@H](Cc1ccc(O)cc1)C(=O)N[C@@H](CC(C)C)C(=O)N[C@@H](CC(N)=O)C(=O)N[C@@H](Cc1c[nH]c2ccccc12)C(=O)N[C@H](C(=O)N[C@H](C(=O)N[C@@H](CCCNC(=N)N)C(=O)N[C@@H](CCC(N)=O)C(=O)N[C@@H](CCCNC(=N)N)C(=O)N[C@@H](Cc1ccc(O)cc1)C(N)=O)[C@@H](C)O)C(C)C [Example 10]	−88%		
CC(C)C[C@H](NC(=O)[C@H](CO)NC(=O)[C@H](C)NC(=O)[C@H](Cc1ccc(O)cc1)NC(=O)[C@H](Cc1ccc(O)cc1)NC(=O)[C@H](CCCNC(=N)N)NC(=O)[C@H](CC(N)=O)NC(=O)[C@H](CC(C)C)NC(=O)[C@H](CCC(=O)O)NC(=O)[C@H](CCC(=O)O)NC(=O)[C@@H]1CCCN1C(=O)[C@H](CO)NC(=O)[C@H](C)NC(=O)[C@H](CC(=O)O)NC(=O)[C@H](CCCCN)NC(=O)CNC(=O)[C@@H]1CCCN1C(=O)[C@H](C)NC(=O)[C@H](CCC(=O)O)NC(=O)[C@@H]1CCCN1C(=O)[C@H](CCCCN)NC(=O)[C@@H]1CCCN1)C(=O)N[C@@H](CCCNC(=N)N)C(=O)N[C@@H](CCCCN)C(=O)N[C@@H](Cc1ccc(O)cc1)C(=O)N[C@@H](CC(C)C)C(=O)N[C@@H](CC(N)=O)C(=O)N[C@@H](Cc1c[nH]c2ccccc12)C(=O)N[C@H](C(=O)N[C@H](C(=O)N[C@@H](CCCNC(=N)N)C(=O)N[C@@H](CCC(N)=O)C(=O)N[C@@H](CCCNC(=N)N)C(=O)N[C@@H](Cc1ccc(O)cc1)C(N)=O)[C@@H](C)O)C(C)C [Example 31]	−59%		
CC[C@H](C)[C@H](N)C(=O)N[C@@H](CCCCN)C(=O)N1CCC[C@H]1C(=O)N1CCC[C@H]1C(=O)N[C@@H](Cc1ccc(O)cc1)C(=O)N1CCC[C@H]1C(=O)NCC(=O)N[C@@H](CS)C(=O)N[C@@H](CC(=O)O)C(=O)N[C@@H](C)C(=O)N[C@@H](CO)C(=O)N1CCC[C@H]1C(=O)N[C@@H](CCC(=O)O)C(=O)N[C@@H](CCC(=O)O)C(=O)N[C@@H](CCC(N)=O)C(=O)N[C@@H](CC(N)=O)C(=O)N[C@@H](CCCCN)C(=O)N[C@@H](Cc1ccc(O)cc1)C(=O)N[C@@H](Cc1ccc(O)cc1)C(=O)N[C@@H](C)C(=O)N[C@@H](CO)C(=O)N[C@@H](CC(C)C)C(=O)N[C@@H](CCCNC(=N)N)C(=O)N[C@@H](C)C(=O)N[C@@H](Cc1ccc(O)cc1)C(=O)N[C@@H](Cc1c[nH]c2ccccc12)C(=O)N[C@@H](CC(N)=O)C(=O)N[C@@H](CC(C)C)C(=O)N[C@H](C(=O)N[C@H](C(=O)N[C@@H](CCCNC(=N)N)C(=O)N[C@@H](CCC(N)=O)C(=O)N[C@@H](CCCNC(=N)N)C(=O)N[C@@H](Cc1ccc(O)cc1)C(N)=O)[C@@H](C)O)C(C)C [Peptide 8]		−19%	
H-IKPEAPLSKQLEEEAVRYYASLRHYLNLVTRQRY-NH2 [Peptide 2]		−12%	
H-PEPEHPGCDASPEDQNKYHASLRKYLNWVTRQRY-NH2 [Peptide 10]		−21%	
H-PKPEAPGCDASPEEWNRYYASLRKYLNWVTRQHY-NH2 [Peptide 14]		24%	
H-PKPEAPGCDASPEEWNRYYASLRKYLNWVTRQNY-NH2 [Peptide 1]		5%	
H-PKPEAPGEDASPKEWNRYYASLRKYLNWVTRQRY-NH2 [Peptide 3]		−30%	
H-PQPESPEGNASPEDWACYHAAVRHYVNLITRQRY-NH2 [Peptide 18]		−17%	
PKPEAPLSKQLEEEAVRYYASLRHYLNLVTRQRY-NH2 [Peptide 21]		−2%	
PKPVAPGCDASPAELNRQYSDLRNYWNLVTRQRY-NH2 [Peptide 15]		−17%	
PYY(3-36)NH2			weight loss vs. vehicle ([2]; 40 days, s.c. osmotic pumps, ED50 doses): −1.3%; inhibition of cumulative food intake ([2]; chronic infusion, vs. vehicle control): −0.7%; ΔΔGlucose ([3]; 26 days, change from baseline and vehicle control, ED20 doses): −33.1 ± 17^ mg/dL
exendin-4			ED50 for weight loss [2, 5]: 0.15 mg/kg/day; ED20 for HbA1c lowering [3, 5]: 0.0055 mg/kg/day

Source: patent US9441023B2, “Peptide YY analogs” (GlaxoSmithKline Intellectual Property Development Limited, priority 2013, dated 2016)
